Data as given in patent publication US9375493B2, “Bacterial imaging agents and methods of using same” (VisEn Medical, Inc., priority 2012, dated 2016).

Legend:
[1] = tested on: Staphylococcus epidermidis; test: In vivo imaging of Staphylococcus epidermidis thigh infection (FMT2500); design: species or system SKH1-E female mice; conditions: 10^8 CFUs i.m. left thigh; 5 nM agent i.v. about 24 hours after inoculation; imaged one, two and three hours after agent injection; all time points
Experimental: SKH1-E female mice, aged 6-8 weeks, were injected intramuscularly with 10^8 CFUs (colony forming units) of Staphylococcus epidermidis in the left thigh. Mice were given intravenous injections of 5 nM of bacterium targeting agent, compound A7, approximately 24 hours after the initial bacterial inoculation.

[2] = tested on: Staphylococcus epidermidis; test: In vitro binding of bacterium targeting agent to bacteria, flow cytometry; format: cell-based; conditions: 10 μM final in TES buffer, RT, 1 hour; FIG. 1A/1B
Experimental: (§1) Bacteria were grown at 37° C. to an OD600=0.3-0.5 and centrifuged at 3500 rpm for 4 minutes before the subsequent pellets were re-suspended in TES buffer. Bacteria with or without targeting agent were grown under the same conditions. Bacterial targeting agents, compound A7, were incubated with bacterial pellets at a concentration of 10 μM final in TES buffer at RT for 1 hour. […] In this experiment, fluorescence is only associated with bacteria in the presence of the bacterium targeting agent described herein.

[3] = tested on: Escherichia coli; test: as above; format: cell-based; conditions: 10 μM final in TES buffer, RT, 1 hour; FIG. 1A/1B
Experimental: as §1

[4] = tested on: Escherichia coli; test: In vivo imaging of Escherichia coli thigh infection (FMT2500); design: species or system SKH1-E female mice; conditions: 10^5-10^8 CFUs i.m. left thigh; 5 nM agent i.v. about 24 hours after inoculation; imaged one hour after agent injection
Experimental: SKH1-E female mice, aged 6-8 weeks, were injected intramuscularly in the left thigh with different concentrations of Escherichia coli at 10^5-10^8 CFUs. At approximately 24 hours after the initial bacterial inoculation, mice were given intravenous injections of 5 nM of bacterium targeting agent, compound A7.

CN1/C(=C/C=C(/C=C/C2=[N+](CCCS(=O)(=O)O)c3ccccc3C2(C)C)c2ccc(C(=O)NCCCCCC(=O)NCC(=O)Nc3ccc(CC[N+]45CC[N+](C)(CC4)CC5)cc3)cn2)C(C)(C)c2ccccc21 [Compound A7, 3-(3,3-dimethyl-2-((1E,3Z,5E)-3-(5-((6-((2-((4-(2-(4-methyl-1,4-diazabicyclo[2.2.2]octan-1,4-diium-1-yl)ethyl)phenyl)amino)-2-oxoethyl)amino)-6-oxohexyl)carbamoyl)pyridin-2-yl)-5-(1,3,3-trimethylindolin-2-ylidene)penta-1,3-dien-1-yl)-3H-indol-1-ium-1-yl)propane-1-sulfonate di-acetate]
differentiation between infected and uninfected areas (fluorescence, tomographic imaging) [1]: Statistically significant differentiation between infected and uninfected areas | in vitro binding to bacteria (fluorescence by flow cytometry) [2]: in vitro binding | in vitro binding to bacteria (fluorescence by flow cytometry) [3]: in vitro binding | uptake of the agent at the site of infection (tomographic images) [4]: clear uptake of the bacterial targeting agent at the site of the infection
